Test results reported in patent publication US6497872B1, “Neural transplantation using proliferated multipotent neural stem cells and their progeny” (NeuroSpheres Holdings Ltd., priority 1991, dated 2002).

How the values were obtained:
[1] = tested on: BrdU positive cells in cervical spinal cord; experiment: In vivo infusion of growth factors into ventricles, BrdU labelling of cervical spinal cord (Example 30); parameters: species or system mouse; conditions: 25 μg/mL, osmotic mini-pump, six days
Experimental: Adult male CD1 albino mice (30-35 g) from Charles River were anaesthetized with sodium pentobarbital ([…]) and placed in a stereotaxic apparatus. The dorsal aspect of the skull was exposed with a longitudinal incision. Cannulas were inserted into the fourth ventricle (stereotaxic coordinates A/P −7.0, L ±0.3 D/V −5.8), cerebral aqueduct (A/P −4.8 L ±D/V −2.6), or central canal (DIV −1.5). The cannulae were attached with sterile tubing to subcutaneous positioned ALZET osmotic mini-pumps containing 25 μg/mL EGF (Becton 40001) and/or 25 μg/mL FGF-2 (R&D Systems 233-FB). Pumps containing sterile saline plus 0.1% mouse albumin (Sigma A3134) were used as controls. The incisions were closed with dental cement.
Six days following surgery mice were injected with 0.15 mL BrdU (Sigma B5002); 18 mg/mL in 0.007% NaOH/0.1M PBS) every 2 hours for 8 hours. They were killed 0.5 hours after the last injection with an anaesthetic overdose, and transcardially perfused with 10 mL of ice-cold sterile saline followed by 10 mL of ice-cold Bouin's fixative (5% glacial acetic acid, 9% formaldehyde, 70% picric acid). The cervical spinal cord region was dissected out and post-fixed overnight at 4° C. in Bouin's post-fixative solution (9% formaldehyde, 70% picric acid). […] The number of BrdU positive cells was counted per cervical spinal cord section. […]

[2] = tested on: Primary striatal cells; experiment: Striatum-derived neurosphere proliferation in response to proliferative and regulatory factors (Example 43, Paradigm 1); assay type: cell-based, mouse
Experimental: Paradigm 1: Primary striatal cells prepared as outlined in Example 1 were suspended in Complete Medium, without growth factors, plated in 96 well plates (Nunclon) and incubated as described in Example 4. Following a one hour incubation period, a specific proliferative factor, or a combination of proliferative factors including EGF, or bFGF (recombinant human bFGF: R & D Systems), or a combination of EGF and bFGF, or EGF plus FGF plus heparan sulfate (Sigma), or bFGF plus heparan sulfate made up in Complete Medium at a concentration of 20 ng/ml for each of the growth factors and 2 μg/ml for heparan sulfate), was added to each well of the plate.
Retinoic acid (Sigma) was added at a concentration of 10^−6 M. 10 μl of one of these regulatory factor-containing solutions was added to each proliferative factor-containing well of the 96 well plates. Control wells, containing only proliferative factors, were also prepared. […]
IL-2, IL-6, IL-8, MIP-1∂, MIP-1β, MIP-2, TNFα and EGF additions were repeated every second day, CNTF which was added each day and retinoic acid, NGF and PDGF were added only once, at the beginning of the experiment. The cells were incubated for a period of 10-12 days. The number of neurospheres in each well was counted and the resulting counts tabulated using Cricket Graph III. Other relevant information regarding sphere size and shape were also noted.

[3] = tested on: constitutively proliferating subependymal cells of the lateral ventricles; experiment: In vivo proliferation of retrovirus β-gal labelled cells of the lateral ventricle (Example 27); parameters: species or system mouse
Experimental: A replication incompetent retrovirus containing the β-galactosidase gene [as described in Walsh and Cepko, Science 241:1342, (1988)] was injected into the forebrain lateral ventricles of CD1 adult male mice (25-30 g from Charles River). The injected retrovirus was harvested from the BAG cell line (ATCC CRL-9560) according to the method of Walsh and Cepko (supra). Mice were anesthetized using 65 mg/kg, i.p. sodium pentobarbital. Unilateral stereotactic injections of 0.2-1.0 μl of retrovirus were injected into the lateral ventricle using a 1 μl Hamilton syringe. The coordinates for injection were AP +4.2 mm anterior to lambda, L ±0.7 mm, and DV −2.3 mm below dura, with the mouth bar at −2 mm below the interaural line.
On the same day as, one day, or six days following the retrovirus injection, an infusion cannulae attached to a 0.5 μl/hour ALZET osmotic mini-pumps filled with 3.3-330 μg/ml of EGF were surgically implanted into the lateral ventricles at the identical stereotactic coordinates as stated above. The infusion cannula kits were obtained from ALZA. The infusion cannulae were cut to 2.7 mm below the pedestal. The pumps were secured to the mouse skull by use of acrylic cement and a skull screw contralateral and caudal to the injection site. […]

[4] = tested on: Striatal cells (E14); experiment: FGF-2 priming of low-density striatal cells before EGF (Example 8); assay type: cell-based, mouse; conditions: primed with 20 ng/ml FGF-2 for 11 DIV, then 20 ng/ml EGF 4-5 DIV; 2500 cell/cm^2
Experimental: Striatal cells (E14, 2500 cell/cm^2) were plated in the absence or presence of 20 ng/ml of FGF-2. After 11 DIV, cultures were washed and medium containing 20 ng/ml of EGF was added. After 4-5 DIV, in cultures that were primed with FGF-2, greater than 70% of the wells examined contained clusters of proliferating cells that developed into colonies with the morphologic and antigenic properties of the EGF-generated cells.

bFGF: basic fibroblast growth factor, recombinant human (R & D Systems)
number of BrdU labelled cells per cervical spinal cord section compared to control [1]: significant increase
size of neurospheres relative to those generated in the presence of EGF ([2]; bFGF alone): about 20%
neurospheres generated per well ([2]; proliferative factor alone, 20 ng/ml): approximately 70 neurospheres per well
number of β-gal labelled cells ([3]; 33 μg/ml infusion): increase
migration of β-gal labelled cells ([3]; 6 days infusion): not accompanied by any additional migration
wells containing clusters of proliferating cells [4]: greater than 70%
